Experimental findings from patent US20260365653A1, “IRREVERSIBLE MUTEGFR INHIBITORS” (Bayer Aktiengesellschaft, priority 2022, published 2026) are described below.

“And” between values parts separate entries of the source, which are not always exact repeats. Equal values may be shown once.

Experiment [1] concerns BA/F3 (insSVD) cells. In words: Ba/F3-EGFR-insSVD cell survival assay (Cell Titer-Glo). Conditions: Table 3a, cell survival, Cell Titer-Glo, with 10 ng/ml EGF, without IL-3. The experiment is classed as cell-based. The method, then:
Cellular Data Description (WT, insSVD, insSVD T790M) 293T cells from ATCC were transfected with pBABEpuro expression constructs for WT EGFR or EGFR-insSVD, or EGFR-insSVD T790M, and pCL-Eco packaging vector using Fugene-6 transfection reagent from Promega. Plates were incubated at 37° C. for 48 h. Retrovirus was harvested by filtering the media supernatant through a 0.45 μm filter.
Ba/F3 cells purchased from DSMZ were grown in RPMI+10% FBS+10 ng/ml IL-3 and infected with filtered retroviral supernatant at a 1:2 dilution. Polybrene was added to a concentration of 8 μg/mL, plates were spun for 90 min, and incubated for 16 h at 37° C. 2 μg/mL puromycin was added to the infected cells 24 h after infection and cells were continually grown in the presence of puromycin and 10 ng/ml IL-3. Following stably expressing Ba/F3 cell lines were generated: Ba/F3-EGFR-WT, Ba/F3-EGFR-insSVD, Ba/F3-EGFR-insSVD T790M, (Ba/F3-vector-control).
For cell survival assays, Ba/F3 cells were grown to a density of 1-2 million cells per mL, spun down and resuspended in media without IL-3, and replated at a concentration of 200,000-500,000 cells per mL. The cells ectopically expressing WT EGFR, EGFR-insSVD, or EGFR-insSVD T790M were plated with 10 ng/ml Millipore Culture grade EGF. The cells ectopically expressing pBABEpuro empty vector were plated with 10 ng/mL IL-3.
2 days later, cells were plated in 50 µL in a 384 well plate at a concentration of 4000 cells per well for cells assayed in the absence of IL-3 and 2000 cells per well for cells assayed in the presence of IL-3. 100 nL of compound was added to each well using a 100 nL pin head, and plates were incubated at 37° C. for 48 h.
Cell viability was measured by adding 20 μL of Cell Titer-Glo Luminescent Cell Viability Reagent diluted 1:3 in PBS. Plates were sealed with Perkin Elmer Top-Seal, inverted several times to mix, and immediately centrifuged at 1000 rpm for 2 min. Plates were incubated in low light conditions for 8-10 min and luminescence was measured.
For orientation: ATP-based viability assays read luminescence as a measure of living cells.

The target in experiment [2] is T1, mutEGFR (D770_N771insSVD) (Homo sapiens, UniProt P00533, DUP768-770).
T1 construct: GST-EGFR #3 (SVD between D770 and N771); made in house; host or cells: Sf9 insect cells (baculovirus)
T1 sequence (P00533 with tags, fused parts or gaps DUP768-770): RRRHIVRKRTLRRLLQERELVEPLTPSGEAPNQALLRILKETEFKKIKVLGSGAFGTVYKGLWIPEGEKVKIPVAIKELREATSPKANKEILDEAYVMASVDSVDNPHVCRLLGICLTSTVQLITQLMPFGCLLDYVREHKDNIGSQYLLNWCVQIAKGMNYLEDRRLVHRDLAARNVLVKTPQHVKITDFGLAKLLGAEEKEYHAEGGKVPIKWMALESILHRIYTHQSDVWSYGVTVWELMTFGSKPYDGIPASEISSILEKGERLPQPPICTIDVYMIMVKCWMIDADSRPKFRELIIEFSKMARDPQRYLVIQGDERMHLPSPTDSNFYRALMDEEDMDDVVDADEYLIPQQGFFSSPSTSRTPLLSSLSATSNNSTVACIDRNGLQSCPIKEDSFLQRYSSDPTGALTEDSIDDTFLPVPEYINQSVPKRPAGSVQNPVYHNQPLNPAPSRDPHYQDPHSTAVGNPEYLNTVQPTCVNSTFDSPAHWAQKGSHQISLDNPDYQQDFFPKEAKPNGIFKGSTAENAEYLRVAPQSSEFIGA
Briefly: Exon20-Mutant-EGFR (D770_N771insSVD) kinase assay (TR-FRET). Conditions: mutEGFR (D770_N771insSVD) kinase assay IC50, Table 2a; D770_N771insSVD; 2 mM ATP. The experiment is classed as biochemical. (In general: Time-resolved FRET reads energy transfer from a long-lived donor to a nearby acceptor.)

The target of experiment [3] is T2, mutEGFR (D770_N771insNPG, T790) (Homo sapiens, UniProt P00533, INS770NPG/T790M).
T2 construct: exact insNPG construct not described; in-house EGFR proteins were N-terminal GST fusions from baculovirus/insect cells (borders R669-A1210 given only for WT, insSVD, insASV)
T2 sequence (P00533 with tags, fused parts or gaps INS770NPG/T790M limits assumed): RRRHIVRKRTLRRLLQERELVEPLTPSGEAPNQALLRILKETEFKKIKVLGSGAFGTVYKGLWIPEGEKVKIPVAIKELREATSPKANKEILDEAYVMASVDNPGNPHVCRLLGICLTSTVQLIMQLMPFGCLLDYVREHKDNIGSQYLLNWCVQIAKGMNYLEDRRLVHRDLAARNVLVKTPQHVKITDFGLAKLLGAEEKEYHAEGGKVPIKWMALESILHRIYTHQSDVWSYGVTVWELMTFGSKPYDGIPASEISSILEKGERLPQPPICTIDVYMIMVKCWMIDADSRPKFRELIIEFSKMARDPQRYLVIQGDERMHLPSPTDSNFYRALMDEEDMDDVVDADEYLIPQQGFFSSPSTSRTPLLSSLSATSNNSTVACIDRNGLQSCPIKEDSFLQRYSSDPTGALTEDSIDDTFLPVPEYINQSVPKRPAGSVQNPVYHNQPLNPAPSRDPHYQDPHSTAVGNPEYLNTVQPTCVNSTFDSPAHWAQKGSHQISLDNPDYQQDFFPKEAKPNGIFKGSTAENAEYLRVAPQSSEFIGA
In words: mutEGFR (D770_N771insNPG, T790) kinase assay. The format is biochemical. Conditions: Table 2a, D770_N771insNPG. An excerpt: The different EGFR proteins used in the biochemical kinase activity inhibition assays were generated inhouse by expression in insect cells using Baculo Virus system and subsequent purification as described in the following paragraphs.
The cDNAs encoding the various protein sequences from human EGFR human (P00533) were optimized for expression in eukaryotic cells and synthesized by the GeneArt Technology at Life Technologies.

As to `Cc1c[nH]c2nccc(-c3c(-c4cccc(C#N)c4)nn4c3CN(C(=O)/C=C/CN(C)C)[C@H](C)C4)c12` [Example 289, 3-[(6R)-5-[(2E)-4-(dimethylamino)but-2-enoyl]-6-methyl-3-(3-methyl-1H-pyrrolo[2,3-b]pyridin-4-yl)-4,5,6,7-tetrahydropyrazolo[1,5-a]pyrazin-2-yl]benzonitrile], the IC50 (usually the concentration that inhibits the measured activity by half) amounted to 910 nM in experiment [1] (Mus musculus, BaF3, 48 h); 6740 nM in experiment [2]; 348 nM in experiment [3].

In the case of `C=CC(=O)N1Cc2c(-c3ccncc3)c(-c3ccc(F)cc3)nn2C(CC(N)=O)C1` (stereo not drawn) [Example 224, 2-(5-acryloyl-2-(4-fluorophenyl)-3-(pyridin-4-yl)-4,5,6,7-tetrahydropyrazolo[1,5-a]pyrazin-7-yl) acetamide], the IC50 in experiment [1] (Mus musculus, BaF3, 48 h) is 338 nM; in experiment [2], 2.38 nM; in experiment [3], 7.59 nM.

`C=CC(=O)N1Cc2c(-c3ccnc4[nH]cc(C)c34)c(-c3ccc(C(F)(F)F)cc3)nn2C[C@@H]1C` [Example 248, 1-[(6S)-6-methyl-3-(3-methyl-1H-pyrrolo[2,3-b]pyridin-4-yl)-2-[4-(trifluoromethyl)phenyl]-6,7-dihydropyrazolo[1,5-a]pyrazin-5(4H)-yl]prop-2-en-1-one]: the IC50 was 59.4 nM in experiment [1] (Mus musculus, BaF3, 48 h); 78.1 nM in experiment [2]; 604 nM in experiment [3].

Take `CC1c2c(-c3ccnc4[nH]ccc34)c(-c3ccc(F)cc3)nn2CCN1C(=O)/C=C/CN(C)C` (single isomer, unassigned; isomer 1) [Example 255, 4-(dimethylamino)-1-[2-(4-fluorophenyl)-4-methyl-3-(1H-pyrrolo[2,3-b]pyridin-4-yl)-6,7-dihydropyrazolo[1,5-a]pyrazin-5(4H)-yl]but-2-en-1-one (isomer 1)]: the IC50 in experiment [1] (Mus musculus, BaF3, 48 h) was determined as 296 nM; in experiment [2], 3180 nM; in experiment [3] it was 9610 nM.

As for `CN(C)C/C=C/C(=O)N1Cc2c(-c3ccncc3)c(-c3ccc(F)cc3)nn2C(CCO)C1` (racemic) [Example 219, rac-(R,E)-4-(dimethylamino)-1-(2-(4-fluorophenyl)-7-(2-hydroxyethyl)-3-(pyridin-4-yl)-6,7-dihydropyrazolo[1,5-a]pyrazin-5(4H)-yl) but-2-en-1-one], the IC50 in experiment [1] (Mus musculus, BaF3, 48 h) came out at 308 nM; in experiment [2], 0.715 nM; in experiment [3], 1.21 nM.

With `C=CC(=O)N1CCn2nc(Nc3ccc(C(F)(F)F)cc3)c(-c3ccncc3)c2C1` [Example 97, 1-[3-(pyridin-4-yl)-2-[4-(trifluoromethyl)anilino]-6,7-dihydropyrazolo[1,5-a]pyrazin-5(4H)-yl]prop-2-en-1-one], the IC50 was determined as 4360 nM in experiment [1] (Mus musculus, BaF3, 48 h); 626 nM in experiment [2]; 3800 nM in experiment [3].

In the case of `CC1CN(C(=O)/C=C/CN(C)C)Cc2c(-c3ccncc3)c(-c3ccc(Cl)cc3F)nn21` (single isomer, unassigned; isomer 1) [Example 287, (2E)-1-[2-(4-chloro-2-fluorophenyl)-7-methyl-3-(pyridin-4-yl)-6,7-dihydropyrazolo[1,5-a]pyrazin-5(4H)-yl]-4-(dimethylamino)but-2-en-1-one (isomer 1)], the IC50 in experiment [1] (Mus musculus, BaF3, 48 h) was 37.3 nM; in experiment [2] it was 0.22 nM; in experiment [3] it was 0.415 nM.

Take `COc1cccc(-c2nn3c(c2-c2ccncc2)CN(C(=O)/C=C/CN(C)C)CC3)c1` [Example 155, (2E)-4-(dimethylamino)-1-[2-(3-methoxyphenyl)-3-(pyridin-4-yl)-6,7-dihydropyrazolo[1,5-a]pyrazin-5(4H)-yl]but-2-en-1-one]: the 50% inhibitory concentration (IC50) is 1050 nM in experiment [1] (Mus musculus, BaF3, 48 h); 6.43 nM in experiment [2]; 5.24 nM in experiment [3].

Regarding `C=CC(=O)N1CCn2nc(-c3ccc(C(F)(F)F)cc3)c(-c3ccnc4[nH]c(C)c(C)c34)c2C1` [Example 56, 1-[3-(2,3-dimethyl-1H-pyrrolo[2,3-b]pyridin-4-yl)-2-[4-(trifluoromethyl)phenyl]-6,7-dihydropyrazolo[1,5-a]pyrazin-5(4H)-yl]prop-2-en-1-one], the IC50 in experiment [1] (Mus musculus, BaF3, 48 h) stood at 124 nM; in experiment [2] it was 281 nM; in experiment [3], 670 nM.

For the molecule `C=CC(=O)N1CCn2nc(-c3ccccc3Cl)c(-c3ccncc3)c2C1` [Example 137, 1-[2-(2-chlorophenyl)-3-(pyridin-4-yl)-6,7-dihydropyrazolo[1,5-a]pyrazin-5(4H)-yl]prop-2-en-1-one], the IC50 was determined as 144 nM in experiment [1] (Mus musculus, BaF3, 48 h); 1.6 nM in experiment [2]; 10.8 nM in experiment [3].

As to `C=CC(=O)N1CCn2nc(-c3ccc(OC)c(F)c3)c(-c3ccnc4[nH]cc(C)c34)c2C1` [Example 46, 1-[2-(3-fluoro-4-methoxyphenyl)-3-(3-methyl-1H-pyrrolo[2,3-b]pyridin-4-yl)-6,7-dihydropyrazolo[1,5-a]pyrazin-5(4H)-yl]prop-2-en-1-one], the IC50 stood at 170 nM in experiment [1] (Mus musculus, BaF3, 48 h); 770 nM in experiment [2]; 555 nM in experiment [3].

On to `Cc1c[nH]c2nccc(-c3c(-c4ccc(C(F)(F)F)cc4)nn4c3C(C)N(C(=O)/C=C/CN(C)C)CC4)c12` (single isomer, unassigned; isomer 1) [Example 265, (E)-4-(dimethylamino)-1-(4-methyl-3-(3-methyl-1H-pyrrolo[2,3-b]pyridin-4-yl)-2-(4-(trifluoromethyl)phenyl)-6,7-dihydropyrazolo[1,5-a]pyrazin-5(4H)-yl) but-2-en-1-one (isomer 1)], for which the half-maximal inhibitory concentration (IC50) was determined as 172 nM in experiment [1] (48 h), 4040 nM in experiment [2] and 6300 nM in experiment [3].

On to `C=CC(=O)N1CCn2nc(-c3ccc(F)c4ccoc34)c(-c3ccncc3)c2C1` [Example 105, 1-[2-(4-fluoro-1-benzofuran-7-yl)-3-(pyridin-4-yl)-6,7-dihydropyrazolo[1,5-a]pyrazin-5(4H)-yl]prop-2-en-1-one], for which the IC50 in experiment [1] (Mus musculus, BaF3, 48 h) was 233 nM; in experiment [2] it was 1.48 nM; in experiment [3] it was 1.57 nM.

With `C=CC(=O)N1Cc2c(-c3ccnc4[nH]cc(C)c34)c(-c3cccc(C#N)c3)nn2C[C@@H]1C` [Example 283, 3-[(6S)-6-methyl-3-(3-methyl-1H-pyrrolo[2,3-b]pyridin-4-yl)-5-(prop-2-enoyl)-4,5,6,7-tetrahydropyrazolo[1,5-a]pyrazin-2-yl]benzonitrile], the IC50 in experiment [1] (Mus musculus, BaF3, 48 h) was found to be 37.5 nM; in experiment [2] it was 249 nM; in experiment [3], 30.3 nM.

With `C=CC(=O)N1CCn2nc(Nc3ccc(C(F)(F)F)cc3)c(-c3ccnc4[nH]cc(C)c34)c2C1` [Example 94, 1-[3-(3-methyl-1H-pyrrolo[2,3-b]pyridin-4-yl)-2-[4-(trifluoromethyl)anilino]-6,7-dihydropyrazolo[1,5-a]pyrazin-5(4H)-yl]prop-2-en-1-one], the IC50 in experiment [1] (Mus musculus, BaF3, 48 h) is 2760 nM; in experiment [2], 213 nM; in experiment [3], 403 nM.

As to `C=CC(=O)N1CCn2nc(-c3ccc(Cl)c(C#N)c3)c(-c3ccncc3)c2C1` [Example 118, 2-chloro-5-[5-(prop-2-enoyl)-3-(pyridin-4-yl)-4,5,6,7-tetrahydropyrazolo[1,5-a]pyrazin-2-yl]benzonitrile], the IC50 in experiment [1] (Mus musculus, BaF3, 48 h) came out at 183 nM; in experiment [2], 8.55 nM; in experiment [3], 4.9 nM.

Take `C=CC(=O)N1Cc2c(-c3ccncc3)c(-c3ccc4sccc4c3)nn2C[C@H]1C` [Example 277, 1-[(6R)-2-(1-benzothiophen-5-yl)-6-methyl-3-(pyridin-4-yl)-6,7-dihydropyrazolo[1,5-a]pyrazin-5(4H)-yl]prop-2-en-1-one]: the IC50 in experiment [1] (Mus musculus, BaF3, 48 h) was 2.77 nM; in experiment [2], < 0.0725 nM and 0.0955 nM and 0.111 nM; in experiment [3], 0.153 nM.
